US7022524B1, “Increasing plant growth with luminol” (The Regents of the University of California, Office of …, priority 1998, dated 2006)

What was measured:
[1] = test system: alfalfa (Medicago sativa L.) roots; assay: Root respiration (CO2 evolution / O2 uptake by gas chromatograph) of excised alfalfa roots after treating intact seedlings; type: in vivo
Description: Rhizobium meliloti 1021 (Rm1021) (Meade (1982) J. Bacteriol. 149:114-122) were grown to the early stationary phase in a defined minimal medium (as described in Vincent (1970) In “A Manual for the Practical Study of Root-Nodule Bacteria, Blackwell Scientific Publications, Oxford, UK). Bacteria were collected by centrifugation and washed three times with sterile water before roots were inoculated. UV irradiance for killing cells in some experiments was supplied as a 25 minute treatment with a transilluminator(model T1202, Sigma). The absence of living cells in UV-killed cultures and sterile, non-inoculated control treatments was verified by plating on tryptone yeast medium.
If respiration is to be measured, it is important that the plants be grown under sterile conditions for the respiration measurements (see, e.g., Guri, et al., U.S. Pat. No. 5,503,652, describing compositions and methods to prevent microbial contamination of plant tissue culture media). Seeds of alfalfa (Medicago sativa L. cv Moapa 69) were surface sterilized for 15 minutes in 70% ethanol, rinsed with water, and allowed to imbibe for four hours with aeration before germinating in a hydroponic system (as in Maxwell (1989) Plant Physiol. 91:842-847) containing nitrogen free nutrient solution (see DeJong (1981) Plant Physiol. 68:309-313). Each 400 mL plastic box contained one gram of seeds and produced about 400 seedlings after being maintained in a sterile manner for about three days with aeration at 25° C. under indirect sunlight supplemented with fluorescent lights. Plants used in these experiments consisted of cotyledons and roots with an occasional primary leaf.
Experiments used 5×10^7 colony-forming units (CFU) of bacteria per mL of plant nutrient solution unless otherwise noted. Bacteria were harvested from their growth medium, washed twice in sterile water, suspended in 1 mL of water and added to the plant nutrient solution of alfalfa seedlings 3 days after germination, when roots were approximately 4-cm long. Sterile water (1 mL) was added to the sterile non-inoculated controls. Plants were harvested to measure root respiration at various times, depending of the experiment. At harvest, roots were excised, blotted briefly on a paper towel, weighed, and enclosed in a 10-mL gas-tight test tube. Each replicate contained 1 gram fresh wt of roots from about 200 plants; every experiment had three or four replicates; and all experiments were repeated at least twice.
All assays were conducted for 30 minutes immediately after excision. Changes in CO2, and in some experiments O2, were measured at 45° C. with a thermistor detector on a Sigma 4 gas chromatograph equipped with a column (3.05 m×3.2 mm) containing Chromosorb 102 for CO2 and Molecular Sieve 5A for O2. Helium was used as the carrier gas at flow rates of 15 cm^3/min for O2 and 35 cm^3/min for CO2. The change in gas composition during the first 30 min after the roots were enclosed in the assay tubes (described above) was used to calculate respiration rates. Data were analyzed with standard statistical methods to determine SE or LSD0.05 values for comparisons of treatment effects by Student's t test or analysis of variance (see, e.g., Steel et al., (1960) Principles and Procedures of Statistics. McGraw-Hill, N.Y.).
Moapa 69′ alfalfa seeds for all experiments were soaked 30 min in 70% ethanol, rinsed with sterile water, treated 5 min in concentrated H2SO4, rinsed with sterile water, soaked 30 min in commercial bleach and then washed with sterile water. For respiration tests approximately 400 seeds (1 gram) were germinated on a 10×10-cm screen above a hydroponic nutrient solution, see Volpin (1998) Plant Physiol. 116:777-783. In some hydroponic experiments the nutrient solution was supplemented to contain ampicillin (125 mg/L) and rifampicin (10 mg/L). Plant growth experiments were done in sterile pots (10×10×10 cm) containing vermiculite. […]

alfalfa seedlings = assay: Net photosynthesis measured as radioactive 14CO2 incorporation in alfalfa seedlings; type: in vivo, Medicago sativa L.
Description: Twenty hours after treating alfalfa roots with purified compound D, 25% to 30% increases in net photosynthesis was effected, as measured by radioactive ^14CO2 incorporation tests. Purified compound D was supplied at approximately 100 pM in solution surrounding roots of three day old alfalfa seedlings. Net photosynthesis was measured as radioactive ^14CO2 incorporation by exposing randomized treatments of all plants simultaneously for about 15 minutes to ^14CO2 in a single chamber with thorough mixing of the chamber atmosphere. Data points were means from two to four replicates, each of which contained approximately 400 seedlings.
The isotopic assay for measuring net photosynthesis with ^14CO2 is described in Sheikholeslam (1980) Botanical Gazette 141:48-52. Briefly, to measure net photosynthesis, intact seedling are placed in a clear plastic box with direct exposure to sunlight or artificial lights. Isotopically labeled ^14CO2 is generated in the plant chamber by injecting an acid solution through a rubber stopper in the wall of the box and into a beaker containing ^14C-bicarbonate. The ^14CO2 released by that chemical reaction is distributed throughout the box with a fan. After 15 minutes of photosynthesis in the presence of ^14CO2, plants are frozen in liquid nitrogen and separated into roots, stems and leaves. The amount of ^14CO2 is measured in the various plant parts with a scintillation counter after chemical digestion of the plant matter.

alfalfa = assay: Plant growth (dry weight of shoots and roots) of alfalfa after root or seed treatment; type: in vivo, Medicago sativa L.
Description: In another experiment, treating alfalfa seedling roots with purified compound D at a presumed concentration of about 100 pM every 48 hours for 10 days increased the final shoot dry mass (as determined by weighing) 10% relative to untreated control plants.
Moapa 69′ alfalfa seeds for all experiments were soaked 30 min in 70% ethanol, rinsed with sterile water, treated 5 min in concentrated H2SO4, rinsed with sterile water, soaked 30 min in commercial bleach and then washed with sterile water. For respiration tests approximately 400 seeds (1 gram) were germinated on a 10×10-cm screen above a hydroponic nutrient solution, see Volpin (1998) Plant Physiol. 116:777-783. In some hydroponic experiments the nutrient solution was supplemented to contain ampicillin (125 mg/L) and rifampicin (10 mg/L). Plant growth experiments were done in sterile pots (10×10×10 cm) containing vermiculite. The pots were watered with the hydroponic nutrient solution (Volpin (1998) supra) supplemented to contain 1 mM NH4NO3 and various lumichrome treatments every second day. In all experiments, plants were grown under controlled conditions using a 12/12-hour day/night photoperiod and a 25/20° C. temperature regime with a photon flux density (400-700 nm) of 250 μmol/m^2-s.
Lumichrome effects on plant growth were tested by treating roots or seeds. Surface-sterilized seeds were soaked 2 hours in either 0 or 5 nM lumichrome. Then 50 seeds were planted in vermiculite in each pot. Plants germinating from untreated seeds received nutrient solution containing 0, 5 or 50 nM lumichrome. Plants developing from seeds soaked in 5 nM lumichrome were watered with lumichrome-free nutrient solution. Pots were covered initially with a clear, plastic wrap, which was removed after 6 days. Plants were harvested 12 days after germination, and roots and shoots were separated, dried, and weighed.

[2] = Stability to light and heat; type: physicochemical; details: e.g., 40° C.
[3] = Solubility and hydrophobicity; type: physicochemical; details: for solubility during purification: all solvents; for solubility: purified compounds, water, methanol; for hydrophobicity: removed from aqueous solution in C18 resin
R. meliloti 1021 = assay: Production of compounds D and Y by bacterial cultures in supplemented medium; type: cell-based, Rhizobium meliloti; details: culture medium supplemented at final concentration of 50 micromolar
[4] = about 100 pM to seedling roots every 48 hours for 10 days

Cc1cc2nc3[nH]c(=O)[nH]c(=O)c3nc2cc1C [lumichrome, 7,8,-dimethylalloxazine]
increase in root respiration ([1]; 3 to 50 nM treatments of alfalfa roots, several experiments, P≦0.05): 11% to 30% | increase in root respiration ([1]; alfalfa roots treated with 3 nM, within 48 hours, P≦0.05): 21% | time for the (slower) increase in root respiration ([1]; in vivo): greater than 4 hours | increase in root respiration ([1]; intact root systems exposed 39 hours, 3 nM lumichrome or S. meliloti cells 10^7 cfu/ml, P≦0.05): 21% | increase in net photosynthesis over untreated control (alfalfa seedlings; approximately 100 pM around roots of three day old seedlings, 20 hours after treating roots): 25% to 30% | time to peak of 14CO2 incorporation (alfalfa seedlings; no more than 100 pM): 5 to 10 h | increase in net photosynthesis above untreated controls (alfalfa seedlings; no more than 100 pM, 8 hour time point after treating roots): 45% to 75% | 14CO2 incorporation (alfalfa seedlings; no more than 100 pM, after approximately 20 hours): about 2.0 ^14CO2 cpm×10^5 per gram cotyledon | 14CO2 incorporation, peak (alfalfa seedlings; no more than 100 pM, peak after about 5 to 10 hours, negative control about 1.5): 2.5 to 2.75 ^14CO2 cpm×10^5 per gram cotyledon | increase in plant growth (alfalfa; 5 nM applied to young alfalfa roots, after 12 days, P≦0.05): 8% | change in root dry weight (alfalfa; [4]): no increase in root dry weight | increase in final shoot dry mass relative to untreated control plants (alfalfa; [4]): 10% | increase in plant growth (alfalfa; alfalfa seeds soaked in 5 nM before germination, 12 days, P≦0.01): 18% | root mass relative to control (alfalfa; lumichrome-treated plants, 12 days): numerically, but not significantly, larger | increase in shoot dry weight relative to control shoots (alfalfa; root drench 5 nM, 12 days, P≦0.05): 7% | increase in shoot dry weight relative to control shoots (alfalfa; root drench 50 nM, 12 days, P≦0.01): 12% | increase in dry matter on a whole-plant basis (alfalfa; roots exposed or seeds immersed before germination, P≦0.05): 8% to 18% | increase in shoot dry weight relative to control shoots (alfalfa; seed soaking 5 nM, 12 days, P≦0.01): 18% | stability to light and heat [2]: degraded by light and heat | solubility during purification [3]: Solubility problems | solubility [3]: soluble in both water and methanol | hydrophobicity [3]: moderately hydrophobic

Oc1cc(O)cc(O)c1 [phloroglucinol, reference compound]
effect on the production of compound Y (R. meliloti 1021): no consistent effect

Cc1cc2nc3c(=O)[nH]c(=O)nc-3n(C[C@H](O)[C@H](O)[C@H](O)CO)c2cc1C [riboflavin]
increase in root respiration compared with lumichrome ([1]; 200 nM riboflavin, one test): approximately the same increase in root respiration as 30 nM lumichrome | increase in root respiration ([1]; very low (e.g., picomolar) concentrations, various experiments): 11% to 31% | enhancement of net photosynthesis (alfalfa seedlings; very low (e.g., picomolar) concentrations): ≤ 7% | stability to light and heat [2]: degraded by light and heat | solubility during purification [3]: only marginally better | solubility [3]: soluble in both water and methanol | hydrophobicity [3]: moderately hydrophobic

CC(=O)c1c(O)cc(O)cc1O [monoacetylphloroglucinol]
effect on the production of compound Y (R. meliloti 1021): no consistent effect

CC(=O)c1c(O)cc(O)c(C(C)=O)c1O [diacetylphloroglucinol, 2,4-diacetyl-1,3,5-benzenetriol]
increase in net photosynthesis in plants (alfalfa seedlings; applied to roots in nanomolar concentrations): ≤ 50% | effect on the production of compound Y (R. meliloti 1021): no consistent effect
